{
  "source": "patent US20100184711A1",
  "about": "“Alpha-GLYCOSYL THIOLS AND alpha-S-LINKED GLYCOLIPIDS” (UNIVERSITY COLLEGE DUBLIN, NATIONAL UNIVERSITY OF IRELAND, …, priority 2008, published 2010)",
  "test_system": "iNKT cells",
  "assay": "iNKT cells co-cultured with CD1d+ cells, cytokine release",
  "assay_type": "cell-based",
  "procedure": "iNKT cells were treated with an α-S-linked galactosylceramide (alpha-GalCer) to determine immunostimulatory activity. FIGS. 4 and 5 show the amounts of interferon-gamma and IL-4 released (expressed as a fold-increase over the levels produced in responses to the mock-transfected cells alone) in 5 experiments. Cytokine was released when iNKT cells were co-cultured with CD1d+ cells in the absence of added glycolipid (second bar). This was enhanced for both cytokines when alpha-GalCer was added and blocked using an antibody specific for CD1d.",
  "key": {"[1]": {"settings": "iNKT cells co-cultured with CD1d+ cells, compared with no added glycolipid, 5 experiments, FIGS. 4 and 5"}},
  "data": [
    {"molecule": "CCCCCCCCCCCCCCCCCCCCCCCCCC(=O)N[C@@H](CO[C@H]1O[C@H](CO)[C@H](O)[C@H](O)[C@H]1O)[C@H](O)[C@H](O)CCCCCCCCCCCCCC", "note": "[alpha-GalCer]", "values": [
      {"measurement": "effect of antibody specific for CD1d on glycolipid-induced cytokine release", "setting": "iNKT cells co-cultured with CD1d+ cells plus anti-CD1d antibody, both cytokines", "value": "blocked"},
      {"measurement": "IL-4 released (fold-increase over the levels produced in response to mock-transfected cells alone)", "setting": "[1]", "value": "enhanced"},
      {"measurement": "interferon-gamma released (fold-increase over the levels produced in response to mock-transfected cells alone)", "setting": "[1]", "value": "enhanced"}
    ]}
  ]
}
